In patent publication US20190045783A1, “SUBSTITUTED IMIDAZOLYLCARBOXAMIDES AS PESTICIDES” (BAYER CROPSCIENCE AKTIENGESELLSCHAFT, priority 2016, published 2019):
Where two headings read alike, the source gives them in different places.

Columns and labels:
[1] = tested on: green peach aphid (Myzus persicae); assay: Myzus persicae spray test (Chinese cabbage leaf discs); type: in vivo; conditions: for pest or weed control at 500 g/ha: Myzus persicae, foliar, read-out: efficacy in %
Method: Myzus persicae—Spray Test
To produce a suitable active ingredient formulation, 1 part by weight of active ingredient is dissolved with the stated parts by weight of solvent and made up with water containing an emulsifier concentration of 1000 ppm until the desired concentration is attained. To produce further test concentrations, the formulation is diluted with emulsifier-containing water.
After 5-6 days, the efficacy in % is determined. 100% means that all the aphids have been killed; 0% means that no aphids have been killed.

[2] = log P by HPLC on reversed-phase column (C18), EEC directive 79/831 Annex V.A8; type: physicochemical
[3] = tested on: green peach aphids (Myzus persicae); assay: Myzus persicae oral test; type: in vivo; conditions: for pest or weed control at 20 ppm: Myzus persicae, 120 h, read-out: efficacy in %
Method: Solvent: 100 parts by weight of acetone
Subsequently, the plates are sealed with parafilm, which a mixed population of green peach aphids (Myzus persicae) within a second microtitre plate is able to puncture and imbibe the solution through it.
After 5 days, the efficacy in % is determined. 100% means that all the aphids have been killed; 0% means that no aphids have been killed.

[4] = application rate 500 g/ha, after 5-6 days, Chinese cabbage leaf discs, 100% = all aphids killed
[5] = application rate 20 ppm, after 5 days, oral, 100% = all aphids killed
[6] = neutral range, pH 7.8, HPLC C18, 43° C., preparation examples, read-out: log P[n]
[7] = reversed-phase HPLC column (C18), neutral range, pH 7.8, HPLC C18, 43° C., preparation examples, read-out: log P[n]

SMILES	efficacy in % [1, 4]	logP [n] ([2]; pH 7.8)	efficacy in % [3, 5]	also measured
CCN(C(=O)c1cnc(C2OCCO2)n1C)c1cccnc1 [I-1-003]	90%	0.98	100%	
CN(C(=O)c1cnc(/C=N/OCC(C)(C)C)n1C)c1cccnc1 [I-1-036]	100%	2.22	100%	
CCO/N=C/c1ncc(C(=O)N(CC)c2cccnc2)n1C [I-1-051]	100%	1.66	100%	
CO/N=C/c1ncc(C(=O)N(C)c2cccnc2)n1C [I-1-001]	90%	1.1	100%	
COC(=O)N(C)/N=C/c1ncc(C(=O)N(C)c2cccnc2)n1C [I-1-018, Methyl (2E)-1-methyl-2-({1-methyl-5-[methyl(pyridin-3-yl)carbamoyl]-1H-imidazol-2-yl}methylene)hydrazinecarboxylate]				pest or weed control at 500 g/ha [1, 4]: 100%; chromatographic logP [2, 6]: 1.08; pest or weed control at 20 ppm [3, 5]: 100%
CN(C(=O)c1cnc(C(=O)C2CC2)n1C)c1cccnc1 [I-1-084]	90%	1.32	100%	
CN(C(=O)c1cnc(C(=O)C(C)(C)C#N)n1C)c1cccnc1 [I-1-067]	100%	1.55	100%	
CN(C(=O)c1cnc(C2COC(C)(C)OC2)n1C)c1cccnc1 [I-1-016, 2-(2,2-Dimethyl-1,3-dioxan-5-yl)-N,1-dimethyl-N-(pyridin-3-yl)-1H-imidazole-5-carboxamide]	100%	1.48	100%	log P[n] ([2]; pH 7.8): 1.48
CN(C(=O)c1cnc(C(=O)NC2(C#N)CC2)n1C)c1cccnc1 [I-1-073]	100%	1.03	100%	
CN(C(=O)c1cnc(C2OCCS2)n1C)c1cccnc1 (stereo not shown) [I-1-021]	100%	0.97	100%	
CN(C(=O)c1cnc(/C=N/NC(=O)OCc2ccccc2)n1C)c1cccnc1 [I-1-028]	90%	1.63	100%	
CCN(C)C(=O)c1ncc(C(=O)N(c2cccnc2)C2CC2)n1C [I-1-087]		1.11		
CCN(C)C(=O)c1ncc(C(=O)N(C)c2cccnc2)n1C [I-1-053]	90%	0.87	100%	
CN(C(=O)c1cnc(C2OCCCS2)n1C)c1cccnc1 (stereo not shown) [I-1-022]	100%	1.13	100%	
CC(C)CO/N=C/c1ncc(C(=O)N(C)c2cccnc2)n1C [I-1-034]	90%	2.07	100%	
CCOC(=O)N/N=C/c1ncc(C(=O)N(C)c2cccnc2)n1C [I-1-017]	100%	1.06	100%	
CNC(=O)c1ncc(C(=O)N(C)c2cccnc2)n1C [I-1-061]		0.7	100%	
CN(C(=O)c1cnc(C(=O)NCC(F)(F)F)n1C)c1cccnc1 [I-1-048]	100%	1.42	100%	
CCN(C(=O)c1cnc(/C=N/OCC2CC2)n1C)c1cccnc1 [I-1-042]	100%	1.86	100%	
C=CCO/N=C/c1ncc(C(=O)N(C)c2cccnc2)n1C [I-1-012]	90%	1.55	100%	
CCCCO/N=C/c1ncc(C(=O)N(C)c2cccnc2)n1C [I-1-027]	100%	2.08	100%	

SMILES	efficacy in % [1, 4]	logP [n] ([2]; pH 7.8)	efficacy in % [3, 5]	also measured
COCCNC(=O)c1ncc(C(=O)N(C)c2cccnc2)n1C [I-1-064]	90%	0.94	100%	
CN(C(=O)c1cnc(/C=N/OC2CCCC2)n1C)c1cccnc1 [I-1-052]	100%	2.14	100%	
CC1COC(c2ncc(C(=O)N(C)c3cccnc3)n2C)O1 (stereo not shown) [I-1-014]	100%	1.02	100%	
CN(C(=O)c1cnc(C(=O)NS(=O)(=O)C2CC2)n1C)c1cccnc1 [I-1-088]		0.72		
COC(=O)c1ncc(C(=O)N(C)c2cccnc2)n1C [I-1-026, Methyl 1-methyl-5-[methyl(pyridin-3-yl)carbamoyl]-1H-imidazol-2-carboxylate]				pest or weed control at 500 g/ha [1, 4]: 90%; chromatographic logP ([2]; acidic range, pH 2.7, HPLC C18, 43° C., preparation examples, read-out: log P[a]): 0.53; chromatographic logP [2, 6]: 0.84; chromatographic logP ([2]; reversed-phase HPLC column (C18), neutral range, pH 7.8, HPLC C18, 43° C., Table 1, read-out: logP [n]): 0.42; pest or weed control at 20 ppm [3, 5]: 100%
CN(/N=C/c1ncc(C(=O)N(C)c2cccnc2)n1C)C(=O)OC(C)(C)C [I-1-038]	90%	1.82	100%	
CC1OC(c2ncc(C(=O)N(C)c3cccnc3)n2C)OC1C (stereo not shown) [I-1-020]	100%	1.23	100%	
CCC(=O)c1ncc(C(=O)N(C)c2cccnc2)n1C [I-1-086]	90%	1.23		
CN(C(=O)c1cnc(C=O)n1C)c1cccnc1 [I-1-007, 2-Formyl-N,1-dimethyl-N-(pyridin-3-yl)-1H-imidazole-5-carboxamide]				pest or weed control at 500 g/ha [1]: 100%; chromatographic logP [2, 7]: 0.59; pest or weed control at 20 ppm ([3]; po): 100%
CON(C)C(=O)c1ncc(C(=O)N(C)c2cccnc2)n1C [I-1-069, N^2-Methoxy-N^2,N^5,1-trimethyl-N^5-(pyridin-3-yl)-1H-imidazole-2,5-dicarboxamide]				pest or weed control at 500 g/ha [1, 4]: 100%; chromatographic logP [2, 7]: 0.72; pest or weed control at 20 ppm [3, 5]: 100%
CCC1COC(c2ncc(C(=O)N(C)c3cccnc3)n2C)O1 (stereo not shown) [I-1-011]	90%	1.3	100%	
COC(=O)CNC(=O)c1ncc(C(=O)N(C)c2cccnc2)n1C [I-1-077]		0.93	90%	
CN(C(=O)c1cnc(C(=O)NCC2CC2)n1C)c1cccnc1 [I-1-063]		1.39	100%	
CN(C(=O)c1cnc(C(=O)NC(CO)c2ccccc2)n1C)c1cccnc1 (stereo not shown) [I-1-079]	90%	1.39	90%	
Cc1ccc(N(C)C(=O)c2cnc(C(=O)N(C)C)n2C)cn1 [I-1-080]	90%		100%	logP [n] ([2]; neutral range, pH 7.8, HPLC C18, 43° C., Table 1): 0.81
CN(C(=O)c1cnc(C(=O)NC(C)(C)C)n1C)c1cccnc1 [I-1-030]	90%	1.62	100%	
CC(C)C(=O)c1ncc(C(=O)N(C)c2cccnc2)n1C [I-1-082, 2-Isobutyryl-N,1-dimethyl-N-(pyridin-3-yl)-1H-imidazole-5-carboxamide]				pest or weed control at 500 g/ha [1, 4]: 100%; chromatographic logP [2, 7]: 1.55
CN(C(=O)c1cncn1C)c1cccnc1 [N,1-Dimethyl-N-(pyridin-3-yl)-1H-imidazole-5-carboxamide]				chromatographic logP [2, 7]: 0.44
CCONC(=O)c1ncc(C(=O)N(C)c2cccnc2)n1C [I-1-078]	90%	0.67		
CN(C(=O)c1cnc(C(=O)NCCO)n1C)c1cccnc1 [I-1-089]		0.45		
